Laboratory results reported in PubChem BioAssay (NCI).
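Assay format: 96-well plates, 48-hour exposure. TGI marks complete inhibition of growth.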 Where a SMILES comes first, the peptide text is derived from it. [ ]: non-standard residue; d: D form.

Columns and labels:
Assay in all cases: growth of human tumour cells (NCI), 48 h
[1] = system: CCRF-CEM leukemia
[2] = system: EKVX NSCLC
[3] = system: HCT-116 colon
[4] = system: HL-60(TB) leukemia
[5] = system: HOP-62 NSCLC
[6] = system: IGROV1 ovarian
[7] = system: K-562 leukemia
[8] = system: NCI-H23 lung
[9] = system: OVCAR-3 ovarian
[10] = system: OVCAR-5 ovarian
[11] = system: OVCAR-8 ovarian
[12] = system: SF-268 CNS
[13] = system: SF-539 CNS
[14] = system: SK-MEL-5 melanoma
[15] = system: SN12C renal
[16] = system: SNB-19 CNS
[17] = system: SW-620 colon
[18] = system: U251 CNS
[19] = system: UACC-62 melanoma
[20] = system: UO-31 renal

Row | SMILES | TGI [1] [µM] | TGI [2] [µM] | TGI [3] [µM] | TGI [4] [µM] | TGI [5] [µM] | TGI [6] [µM] | TGI [7] [µM] | TGI [8] [µM] | TGI [9] [µM] | TGI [10] [µM] | TGI [11] [µM] | TGI [12] [µM] | TGI [13] [µM] | TGI [14] [µM] | TGI [15] [µM] | TGI [16] [µM] | TGI [17] [µM] | TGI [18] [µM] | TGI [19] [µM] | TGI [20] [µM]
1 | O=c1oc2cc(O)ccc2c(O)c1Cc1c(O)c2ccc(O)cc2oc1=O | > 100 | > 100 | > 100 | > 100 | > 100 | > 100 | > 100 | > 100 | > 100 | > 100 | > 100 | > 100 | > 100 | > 100 | > 100 | > 100 | > 100 | > 100 | > 100 | > 100
2 | O=c1cc(-c2ccccc2)[nH]c2nccn12 | > 10 | > 10 | > 10 | > 10 | > 10 | > 10 | > 10 | > 10 | > 10 | > 10 | > 10 | > 10 | > 10 | > 10 | > 10 | > 10 | > 10 | > 10 | > 10 | > 10
3 | Cc1ccc2c(=O)c3ccccc3sc2c1 | > 100 | > 100 | > 100 | > 100 | > 100 | > 100 | > 100 | > 100 | > 100 | > 100 | > 100 | > 100 | > 100 | > 100 | > 100 | > 100 | > 100 | > 100 | > 100 | > 100
4 | CC(=O)Nc1cccc(N=NN(C)C)c1 | > 100 | > 100 | > 100 | > 100 | > 100 | > 100 | > 100 | > 100 | > 100 | > 100 | > 100 | > 100 | > 100 | > 100 | > 100 | > 100 | > 100 | > 100 | > 100 | > 100
5 | CCn1cnnc1-c1nsc2ccccc12 | > 100 | > 100 | > 100 | > 100 | > 100 | > 100 | > 100 | > 100 | > 100 | 92.2 | > 100 | > 100 | > 100 | > 100 | > 100 | > 100 | > 100 | > 100 | > 100 | > 100
6 | CCC1NC(N=Nc2ccc([N+](=O)[O-])cc2)(P(=O)(OC(C)C)OC(C)C)OC1=O (centres undefined) | > 100 | > 100 | > 100 | > 100 | > 100 | > 100 | > 100 | > 100 | > 100 | > 100 | > 100 | > 100 | > 100 | > 100 | > 100 | > 100 | > 100 | > 100 | > 100 | > 100
7 | CC(C)NC(=O)OCc1c2c(n(C)c1COC(=O)NC(C)C)-c1ccccc1CC2 | 7.63 | 33.6 | 23.2 | > 32 | 18.6 | 29.2 | > 38.5 | 19.7 | 27.3 | 31.6 | 31.1 | 28.8 | 34.3 | 29.1 | 27.4 | 35.2 | 26 | 22.5 | 25.5 | 32.4
8 | O=C(O)C1CCCCN1c1ccccc1[N+](=O)[O-] (centres undefined) | > 100 | > 100 | > 100 | > 100 | > 100 | > 100 | > 100 | > 100 | > 100 | > 100 | > 100 | > 100 | > 100 | > 100 | > 100 | > 100 | > 100 | > 100 | > 100 | > 100
9 | CC1=CC2c3cccc4[nH]cc(c34)CC2N(C)C1 (centres undefined) | > 100 | > 100 | > 100 | > 100 | 30.8 | > 100 | > 100 | > 100 | > 100 | > 100 | > 100 | > 100 | > 100 | > 100 | > 100 | > 100 | > 100 | > 100 | > 100 | > 76.9
10 | CN(Cc1cnc2c(N)nc(N)nc2n1)c1ccc(Cl)cc1 | > 100 | > 100 |  | > 100 | > 100 | > 100 | > 100 | > 100 | > 100 | > 100 | > 100 | > 100 | 70.9 | > 100 | > 100 | > 100 | > 100 | > 100 | > 100 | > 100
11 | CC(C)C[C@H](NC(=O)[C@H](CC(C)C)NC(=O)[C@@H](Cc1c[nH]c2ccccc12)NC(=O)[C@H](Cc1ccccc1)NC(=O)[C@@H](Cc1c[nH]c2ccccc12)NC(=O)[C@H](CCC(N)=O)NC(=O)[C@H](CCC(N)=O)NC(=O)[C@H]1CCCN1C(=O)[C@@H](N)CCCCN)C(N)=O (H-K[dP]QQ[dW]F[dW]LL-NH2) | > 100 | > 100 | > 100 | > 100 | > 100 | > 100 | > 100 | > 100 | > 100 | > 100 | > 100 | > 100 | > 100 | > 100 | > 100 | > 100 | > 100 | > 100 | > 100 | > 100
12 | O=[N+]([O-])c1ccc(NNN=Nc2ccc(-c3nc4ccccc4s3)cc2)c([N+](=O)[O-])c1 | > 100 | 44.4 | 33.8 | 69.9 | 48.4 | 49.5 | 86.2 | 59.3 | 46.7 | 71.5 | 72.5 | > 100 | 42.4 | 29.3 | 50.8 | > 100 | > 100 | 76.3 | 27.7 | 51.3
